The values that follow come from patent publication US12465584B2, “Agent for elevating nitric oxide concentration” (KYOWA HAKKO BIO CO., LTD., priority 2013, dated 2025).

Like-named read-outs stand apart in the source and are kept apart here.

The test relates to NOx concentration in blood. As to conditions: male SD rats, blood over 4 hours after last administration, FIG. 1.

In the case of `N[C@@H](CCC(=O)N[C@@H](CS)C(=O)NCC(=O)O)C(=O)O` [glutathione, γ-L-Glu-L-Cys-Gly], the “amount of increase in the NOx concentration in blood plasma from the baseline” value is “same tendency” (25 mg/kg/day reduced glutathione orally once a day for three days, compared to control group) and “significantly increased” (50 mg/kg/day reduced glutathione orally once a day for three days, compared to control group (P<0.05)).
